Biological target: T1, Nuclear receptor ROR-gamma (Homo sapiens, UniProt P51449)
T1 sequence (P51449 whole entry): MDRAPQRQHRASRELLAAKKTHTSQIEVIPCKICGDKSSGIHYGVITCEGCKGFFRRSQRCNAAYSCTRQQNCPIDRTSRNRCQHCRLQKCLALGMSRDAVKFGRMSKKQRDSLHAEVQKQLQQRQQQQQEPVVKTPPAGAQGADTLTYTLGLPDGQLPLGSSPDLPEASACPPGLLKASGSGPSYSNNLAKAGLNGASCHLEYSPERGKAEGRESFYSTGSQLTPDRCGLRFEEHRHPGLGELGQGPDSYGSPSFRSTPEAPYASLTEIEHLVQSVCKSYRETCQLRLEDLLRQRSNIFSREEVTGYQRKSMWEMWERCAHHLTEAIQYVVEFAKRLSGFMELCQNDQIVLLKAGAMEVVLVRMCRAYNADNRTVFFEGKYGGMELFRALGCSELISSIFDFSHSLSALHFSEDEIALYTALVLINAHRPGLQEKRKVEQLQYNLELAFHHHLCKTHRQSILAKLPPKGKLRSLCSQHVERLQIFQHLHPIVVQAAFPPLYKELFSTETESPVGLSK
Test: ROR gamma t 5xRORE Assay in Jurkat Cells (Assay 2): Compounds of the present invention were tested for ROR gamma inverse agonist activity in a cell-based, transcriptional activity assay. […] (Promega, Cat. # N1021) using KpnI and HindIII restriction sites. […] Luciferase activity in the conditioned supernatants was determined with NanoGlo assay reagents (Promega, Cat.# N1130).

With CCS(=O)(=O)c1ccc(C2(NC(=O)c3cnc4c(c3)CN(Cc3ccc(C(F)(F)F)cc3)[C@H]4C(C)C)CC2)nc1 the IC50 was under 100 nM.
